Laboratory results reported in patent EP1397353B1, “2-(2,6-DISUBSTITUTED PHENYL)-4-ARYL-5-ALKYL-1,3-OXAZOLINE COMPOUNDS USEFUL AS INSECTICIDES AND ACARICIDES” (Dow AgroSciences LLC, priority 2001, dated 2003).

Tests used:
Assay type in all cases: in vivo
[1] = test system: tobacco budworm (Heliothis virescens); assay: Insecticidal test for tobacco budworm (leaf-dip, cotton cotyledon discs); conditions: dipped cotton cotyledon discs, 2nd instar larvae, 5 days, rating of % Control; for pest or weed control at 400 ppm: Heliothis virescens, 120 h, read-out: TBW, activity at 400 ppm against tobacco budworm
Description: (§1) Insecticidal test for tobacco budworm (Heliothis virescens), beet armyworm (Spodoptera exigua), and cabbage looper (Trichoplusia ni).
(§2) To prepare test solution, the test compound was formulated at 400 ppm in 7.5 mL of 2 acetone: 1 tap water. 250 µL of the test solution was pipetted upon the surface of 8 mL of lepidopteran diet (modified Shorey) contained in each of five one-ounce plastic cups (one cup = 1 replication). […] After airdrying, the treated leaf discs were placed individually into one-ounce plastic cups. Each dried, treated cotton cotyledon disc was infested with a 2nd instar tobacco budworm larva, and each cabbage leaf disc was infested with a 2nd instar cabbage looper larva. Cups containing the treated substrates and larvae were capped and then held in a growth chamber at 25 °C, 50-55% RH, and 14 hr light: 10 hr dark for 5 days.

[2] = test system: beet armyworm (Spodoptera exigua); assay: Insecticidal test for beet armyworm (treated lepidopteran diet); conditions: 2nd instar larvae, 5 days, rating of % Control; for pest or weed control at 400 ppm: Spodoptera exigua, 120 h, read-out: BAW, activity at 400 ppm against beet armyworm
Description: as §1, §2

[3] = test system: cabbage looper (Trichoplusia ni); assay: Insecticidal test for cabbage looper (leaf-dip, cabbage leaf discs); conditions: dipped cabbage leaf discs, 2nd instar larvae, 5 days, rating of % Control; for pest or weed control at 400 ppm: Trichoplusia ni, foliar, 120 h, read-out: CL, activity at 400 ppm against cabbage looper
Description: as §1, §2

[4] = test system: two-spotted spider mite (Tetranychus urticae); assay: Insecticidal test for two-spotted spider mite, ovicide method; conditions: for pest or weed control: Tetranychus urticae, read-out: SM, activity against two-spotted spider mite
Description: Insecticidal test for two-spotted spider mite (Tetranychus urticae)
Ten adult female two-spotted spider mites were placed on eight 2.2 cm leaf discs of cotton leaf, allowed to oviposit over 24 hours, and thereafter removed. […] Discs were placed on an agar substrate and held at 24 °C and 90% RH for 6 days.

[5] = foliar, 144 h, ovicide method, cotton leaf discs, 6 days, rating of % Control

Row | Molecule | pest or weed control at 400 ppm [1] | pest or weed control at 400 ppm [2] | pest or weed control at 400 ppm [3] | further results
1 | Cc1ccc(-c2ccc([C@@H]3N=C(c4c(F)cccc4F)O[C@@H]3C)cc2)cc1 (mixture of isomers) [Compound 9, (4S,5R)- and (4R,5S)-2-(2,6-difluorophenyl)-5-methyl-4-(4'-methyl-1,1'-biphenyl-4-yl)-4,5-dihydro-1,3-oxazole] | < 50% | 90 to 100% | 90 to 100% | –
2 | C[C@H]1OC(c2c(F)cccc2F)=N[C@H]1c1ccc(-c2ccc(Cl)cc2)cc1 (mixture of isomers) [Compound 10, (4S,5R)- and (4R,5S)-4-(4'-chloro-1,1'-biphenyl-4-yl)-2-(2,6-difluorophenyl)-5-methyl-4,5-dihydro-1,3-oxazole] | 90 to 100% | 90 to 100% | 90 to 100% | –
3 | C[C@H]1OC(c2c(F)cccc2F)=N[C@H]1c1ccc(-c2cccc(C(F)(F)F)c2)cc1 (mixture of isomers) [Compound 11, (4S,5R)- and (4R,5S)-2-(2,6-difluorophenyl)-5-methyl-4-[3'-(trifluoromethyl)-1,1'-biphenyl-4-yl]-4,5-dihydro-1,3-oxazole] | 80 to 89% | 90 to 100% | 90 to 100% | –
4 | C[C@@H]1OC(c2c(F)cccc2F)=N[C@@H]1c1ccc(-c2ccc3c(c2)OC(F)(F)O3)cc1 (mixture of isomers) [Compound 13, (4R,5S)- and (4S,5R)-4-[4-(2,2-difluoro-1,3-benzodioxol-5-yl)phenyl]-2-(2,6-difluorophenyl)-5-methyl-4,5-dihydro-1,3-oxazole] | < 50% | – | 90 to 100% | –
5 | C[C@@H]1OC(c2c(F)cccc2F)=N[C@@H]1c1ccc(-c2ccc(C(F)(F)F)cc2F)cc1 (mixture of isomers) [Compound 16, (4R,5S)- and (4S,5R)-2-(2,6-difluorophenyl)-4-[2'-fluoro-4'-(trifluoromethyl)-1,1'-biphenyl-4-yl]-5-methyl-4,5-dihydro-1,3-oxazole] | 90 to 100% | 90 to 100% | 90 to 100% | –
6 | C[C@@H]1OC(c2c(F)cccc2F)=N[C@H]1c1ccc(-c2ccc(F)cc2)cc1 (mixture of isomers) [Compound 25, (4S,5S)- and (4R,5R)-2-(2,6-difluorophenyl)-4-(4'-fluoro-1,1'-biphenyl-4-yl)-5-methyl-4,5-dihydro-1,3-oxazole] | 90 to 100% | 90 to 100% | 90 to 100% | pest or weed control [4, 5]: 90 to 100%
7 | C[C@@H]1OC(c2c(F)cccc2F)=N[C@H]1c1ccc(-c2ccc(C(F)(F)F)cc2)cc1 (mixture of isomers) [Compound 26, (4S,5S)- and (4R,5R)-2-(2,6-difluorophenyl)-5-methyl-4-[4'-(trifluoromethyl)-1,1'-biphenyl-4-yl]-4,5-dihydro-1,3-oxazole] | 90 to 100% | 90 to 100% | 90 to 100% | pest or weed control [4, 5]: 90 to 100%
8 | C[C@@H]1OC(c2c(F)cccc2F)=N[C@H]1c1ccc(-c2cccc(C(F)(F)F)c2)cc1 (mixture of isomers) [Compound 28, (4S,5S)- and (4R,5R)-2-(2,6-difluorophenyl)-5-methyl-4-[3'-(trifluoromethyl)-1,1'-biphenyl-4-yl]-4,5-dihydro-1,3-oxazole] | 90 to 100% | 90 to 100% | 90 to 100% | pest or weed control [4, 5]: 90 to 100%
9 | Cc1ccc(-c2ccc([C@@H]3N=C(c4c(F)cccc4F)O[C@H]3C)cc2)cc1C (mixture of isomers) [Compound 29, (4S,5S)- and (4R,5R)-2-(2,6-difluorophenyl)-4-(3',4'-dimethyl-1,1'-biphenyl-4-yl)-5-methyl-4,5-dihydro-1,3-oxazole] | < 50% | 60 to 69% | 90 to 100% | –
10 | C[C@@H]1OC(c2c(F)cccc2F)=N[C@H]1c1ccc(-c2ccccc2F)cc1 (mixture of isomers) [Compound 31, (4S,5S)- and (4R,5R)-2-(2,6-difluorophenyl)-4-(2'-fluoro-1,1'-biphenyl-4-yl)-5-methyl-4,5-dihydro-1,3-oxazole] | < 50% | < 50% | 90 to 100% | pest or weed control [4, 5]: 90 to 100%
11 | CCOc1ccc(-c2ccc([C@@H]3N=C(c4c(F)cccc4F)O[C@H]3C)cc2)cc1 (mixture of isomers) [Compound 33, (4S,5S)- and (4R,5R)-2-(2,6-difluorophenyl)-4-(4'-ethoxy-1,1'-biphenyl-4-yl)-5-methyl-4,5-dihydro-1,3-oxazole] | 80 to 89% | 90 to 100% | 90 to 100% | pest or weed control [4, 5]: 80 to 89%
12 | C[C@@H]1OC(c2c(F)cccc2F)=N[C@H]1c1ccc(-c2ccc3c(c2)OC(F)(F)O3)cc1 (mixture of isomers) [Compound 34, (4S,5S)- and (4R,5R)-4-[4-(2,2-difluoro-1,3-benzodioxol-5-yl)phenyl]-2-(2,6-difluorophenyl)-5-methyl-4,5-dihydro-1,3-oxazole] | < 50% | – | 90 to 100% | –
13 | Cc1ccc(-c2ccc([C@@H]3N=C(c4c(F)cccc4F)O[C@H]3C)cc2)cc1 (mixture of isomers) [Compound 36, (4S,5S)- and (4R,5R)-2-(2,6-difluorophenyl)-5-methyl-4-(4'-methyl-1,1'-biphenyl-4-yl)-4,5-dihydro-1,3-oxazole] | < 50% | < 50% | 90 to 100% | –
14 | C[C@@H]1OC(c2c(F)cccc2F)=N[C@H]1c1ccc(-c2ccc(Cl)cc2)cc1 (mixture of isomers) [Compound 37, (4S,5S)- and (4R,5R)-4-(4'-chloro-1,1'-biphenyl-4-yl)-2-(2,6-difluorophenyl)-5-methyl-4,5-dihydro-1,3-oxazole] | 90 to 100% | 90 to 100% | 90 to 100% | –
15 | Cc1cc(Br)ccc1[C@@H]1N=C(c2c(F)cccc2F)O[C@H]1C (mixture of isomers) [Compound 42, (4S,5S)- and (4R,5R)-4-(4-bromo-2-methylphenyl)-2-(2,6-difluorophenyl)-5-methyl-4,5dihydro-1,3-oxazole] | < 50% | – | – | –
16 | C[C@@H]1OC(c2c(F)cccc2F)=N[C@@H]1c1ccc(-c2ccc(C(F)(F)F)cc2)cc1 (racemic) [Compound 5, (4R,5S)- and 4S,5R)-2-(2,6-difluorophenyl)-5-methyl-4-(4'-(trifluoromethyl)-1,1'-biphenyl-4-yl]-4,5-dihvdro-1,3-oxazole] | – | – | – | SM, activity at 2.5 ppm against two-spotted spider mite ([4]; foliar, 144 h): A (90-100); BAW, activity at 400 ppm against beet armyworm [2]: A (90-100); CL, activity at 400 ppm against cabbage looper [3]: A (90-100)
17 | CCOc1ccc(-c2ccc([C@H]3N=C(c4c(F)cccc4F)O[C@H]3C)cc2)cc1 (racemic) [Compound 12, (4R,5S)- and (4S,5R)-2-(2,6-difluorophenyl)-4-(4'-ethoxy-1,1'-bphenyl-4-yl)-5-methyl-4,5-dihydro-1,3-oxazole] | – | – | – | TBW, activity at 400 ppm against tobacco budworm [1]: B (80-89); BAW, activity at 400 ppm against beet armyworm [2]: A (90-100); CL, activity at 400 ppm against cabbage looper [3]: A (90-100)
18 | C[C@@H]1OC(c2c(F)cccc2F)=N[C@@H]1c1ccc(-c2ccccc2F)cc1 (racemic) [Compound 15, (4R,5S)- and (4S,5R)-2-(2,6-difluorophenyl)-4-2'-fluoro-1,1'-biphenyl-4-yl)-5-methyl-4,5-dihydro-1,3-oxazole] | – | – | – | CL, activity at 400 ppm against cabbage looper [3]: A (90-100)
19 | C[C@@H]1OC(c2c(F)cccc2F)=N[C@H]1c1ccc(-c2ccc(OC(F)(F)F)cc2)cc1 [Compound 47] | – | – | – | SM, activity at 2.5 ppm against two-spotted spider mite ([4]; foliar, 144 h): A (90-100); BAW, activity at 400 ppm against beet armyworm [2]: A (90-100); CL, activity at 400 ppm against cabbage looper [3]: A (90-100)
20 | (4R,5R)- and (4S,5S)-4-(4-bromophenyl)-2-(2-chloro-6-fluorophenyl)-5-methyl-4,5-dihydro-1,3-oxazole [Compound 23] | – | – | – | SM, activity at 2.5 ppm against two-spotted spider mite ([4]; ovicide method, cotton leaf discs, 6 days, rating of % Control): A (90-100); TBW, activity at 400 ppm against tobacco budworm [1]: B (80-89); CL, activity at 400 ppm against cabbage looper [3]: F (less than 50)
21 | (4R,5R)- and (4S,5S)-4-phenyl-2-(2,6-difluorophenyl)-5-methyl-4,5-dihydro-1,3-oxazole [Compound 35] | – | – | – | TBW, activity at 400 ppm against tobacco budworm [1]: F (less than 50); CL, activity at 400 ppm against cabbage looper [3]: F (less than 50)
